Key:
Assay type in all cases: in vivo
[1] = system: Erysiphe necator (UNCINE); assay: Field assessment of grape powdery mildew; details: grapes, 5% EC + Trycol
Source text: A fungicidal treatment containing Compound I, applied in a 5% EC formulation and tank mixed with an adjuvant (Trycol, 50% w/w at 0.2% v/v), was sprayed on the plant canopy of grape plants (VITVI, Chardonnay variety) at rates of 50, 100 and 150 grams of active ingredient per hectare (g ai/ha). The trial was based on six foliar applications during the growing season at approximately 10 day intervals with natural infections in open field conditions. The treatment was part of an experimental trial designed as a randomized complete block with four replications and a plot of approximately 3.0×7.0 m. Formulations of compound I were applied at water volume of 1000 L/ha, using a self-propelled multi-plot track sprayer (TRACTAIR, Andreoli Engineering) and pressurized at 400 kPa.
Disease evaluations were recorded as percent of leaves and fruit with disease (incidence) and percent diseased area on leaves and fruit (severity, using 100 random leaves and fruit bunches. Grape powdery mildew was assessed three times, with the initial assessment at 2 days after the fourth application. Area under the disease progress curve (AUDPC) was calculated for each plot using the sets of recorded severity data. Relative AUDPC (% control based on AUDPC) was calculated as percent of the nontreated control. Results are given in Table 8.

[2] = system: Podosphaera clandestina (PODOCL); assay: Field assessment of powdery mildew in cherry; details: cherry leaves, 14 DAA5
Source text: A fungicidal treatment containing Compound I, applied in an SC formulation (MSO built-in) and tank mixed with an adjuvant (Agnique BP-420, 50% w/w at 0.2% v/v or Adsee C80W 80%), was sprayed on cherry trees (PRNAV, Sentennial variety) at growth stage (mid petal fall, flowers fading, petals falling; BBCH 67-85) at rates of 60, 120, 150, and 180 g ai/ha. The experimental plots were run with natural infestation. The treatment was part of an experimental trial designed as a randomized complete block (RCB) with four replications and a plot of approximately 4×6 m. Compound I was applied at water volume of 1000 L/ha, using an Airblast sprayer.
Disease severity (percentage of visual diseased foliage (leaf) on whole plot) and disease incidence were assessed 14 days after application 5 (14 DAA5). The disease infection was recorded. Disease was evaluated as percent of leaves with disease (incidence), percent diseased leaf area (severity, a disease index calculated (percent (%) incidence×percent (%) severity) and then percent (%) control was calculated using Abbotts from the disease index values. Results are given in Table 12.

Monilinia laxa (MONILA) = assay: Field assessment on brown rot of flowers in stone fruits (apricots); details: 5% EC + Trycol, field grown apricots, protectant
Source text: A fungicidal treatment containing Compound I, applied in a 5% EC formulation and tank mixed with an adjuvant (Trycol, 50% w/w at 0.2% v/v), was sprayed twice during the flowering period on the plant canopy of apricots (PRNAR, Protici variety) at rates of 50, 100, and 150 grams of active ingredient per hectare (g ai/ha). The applications were done at 7 day intervals with disease inoculation at the last application (protectant). The treatment was part of an experimental trial designed as a randomized complete block with four replications and a plot of approximately 4.7×3.1 m, with compound I being applied using a MISTBLOW, Solo backpack applicator at a water volume of 500 L/ha. MONILA disease was evaluated on flowers on a sample of 10 pre-marked branches per tree. The number of infected flowers was counted and consequently the percent incidence was calculated. Visual infection was assessed three times during the trial at 10, 14 and 20 days after the second application. Area under the disease progress curve (AUDPC) was calculated for each plot using the sets of recorded severity data. Relative AUDPC (% control based on AUDPC) was calculated as percent of the nontreated control.

[3] = system: Rhizopus stolonifer (RIZPST); assay: Field microplot assessment on Rhizopus rot on peaches; details: field grown peaches, 17 days after first application
Botrytis (BOTRSP) = assay: Field assessment of jacket rot in almond; details: MSO, almond nut infection
Description: A fungicidal treatment containing Compound I, applied in an SC formulation (MSO-built in) was sprayed on almond trees (Prunus spp.) at bloom, petal fall and ca. 3 and 5 weeks after petal fall at rates of 60, 120, 150, and 180 g ai/ha. The experimental plots were conducted with a natural infestation of Botrytis. The treatments were part of an experimental trial designed as a randomized complete block (RCB) with three replications and a plot of approximately 18×18 ft. Compound I was applied at water volume of 100 gal/acre, using an Airblast sprayer. Nut infection (number of visual diseased nuts per total nuts counted per tree on whole plot) was assessed and recorded 17 days after application 4 (17 DAA4). Relative percent control was calculated as percent of the untreated control using Abbotts.

COc1ccnc(C(=O)N[C@@H](C)C(=O)O[C@@H](C)C(c2ccc(F)cc2)c2ccc(F)cc2)c1OC(C)=O [Compound I, (S)-1,1-bis(4-fluorophenyl)propan-2-yl (3-acetoxy-4-methoxypicolinoyl)-L-alaninate]
Percent control (AUDPC) from bunch infection assessments ([1]; 50 g ai/ha): B (51-75) | Percent control (AUDPC) from bunch infection assessments ([1]; 100 g ai/ha): B (51-75) | Percent control (AUDPC) from bunch infection assessments ([1]; 150 g ai/ha): A (76-100) | Percent control (AUDPC) from leaf infection assessments ([1]; 50 g ai/ha): A (76-100) | Percent control (AUDPC) from leaf infection assessments ([1]; 100 g ai/ha): A (76-100) | Percent control (AUDPC) from leaf infection assessments ([1]; 150 g ai/ha): A (76-100) | Calc Percent Control of PODOCL ([2]; 60 g ai/ha, Agnique BP420, 240 mL/ha): 64.6% | Calc Percent Control of PODOCL ([2]; 60 g ai/ha, MSO, 120 g ai/ha): 63.3% | Calc Percent Control of PODOCL ([2]; 120 g ai/ha, Adsee C80W 80%, 300 g ai/ha): 44.4% | Calc Percent Control of PODOCL ([2]; 120 g ai/ha, Agnique BP420, 480 mL/ha): 46.9% | Calc Percent Control of PODOCL ([2]; 120 g ai/ha, MSO, 240 g ai/ha): 37.9% | Calc Percent Control of PODOCL ([2]; 150 g ai/ha, Agnique BP420, 600 mL/ha): 44.4% | Calc Percent Control of PODOCL ([2]; 150 g ai/ha, MSO, 300 g ai/ha): 91.7% | Calc Percent Control of PODOCL ([2]; 180 g ai/ha, Agnique BP420, 720 mL/ha): 48.7% | Calc Percent Control of PODOCL ([2]; 180 g ai/ha, MSO, 360 g ai/ha): 89.1% | % Control (AUDPC) from flower incidence assessments (Monilinia laxa (MONILA); 50 g ai/ha): B (51-75) | % Control (AUDPC) from flower incidence assessments (Monilinia laxa (MONILA); 100 g ai/ha): A (76-100) | % Control (AUDPC) from flower incidence assessments (Monilinia laxa (MONILA); 150 g ai/ha): A (76-100) | RIZPST, percentage of diseased peaches (Incidence) ([3]; 50 g ai/ha): 67.5% | RIZPST, percentage of diseased peaches (Incidence) ([3]; 100 g ai/ha): 22.5% | RIZPST, percentage of diseased peaches (Incidence) ([3]; 150 g ai/ha): 35.0% | Calc Percent Control of BOTRSP 17 DAA4 (Botrytis (BOTRSP); 60 g ai/ha, 120 g ai/ha): 37.9% | Calc Percent Control of BOTRSP 17 DAA4 (Botrytis (BOTRSP); 120 g ai/ha, 240 g ai/ha): 40.0% | Calc Percent Control of BOTRSP 17 DAA4 (Botrytis (BOTRSP); 150 g ai/ha, 300 g ai/ha): 51.6% | Calc Percent Control of BOTRSP 17 DAA4 (Botrytis (BOTRSP); 180 g ai/ha, 360 g ai/ha): 53.5%

— patent US20200077655A1, “Use of an Acyclic Picolinamide Compound as a Fungicide for Control of Phytopathogenic Fungi in Orchard, Vineyard and Plantation Crops” (Dow AgroSciences LLC, priority 2017, published 2020)
